Usually melting point stands for the temperature, or range, at which the solid turns liquid.

These results are taken from a melting point compilation (Tetko et al.; mined from patent text by program, amines drawn as free bases though some values may be those of a salt).

In turn, `C[C@@H](NC(=O)c1nc(-c2ccc(Cl)cc2)no1)[C@](O)(Cn1cncn1)c1ccc(F)cc1F` showed a melting point of 170 to 172 °C.

For the compound `Nc1ccc(-c2ccncc2)nc1N`, the melting point was in the range of 252 to 254 °C.

`Cc1ccc(N(C)S(=O)(=O)c2cccs2)c2[nH]c(-c3ncc(CO)s3)cc12` showed a melting point of 184 to 185 °C.

`CC(C)[C@H](NC(=O)OCc1ccccc1)C(=O)OC[C@H]1O[C@@H](n2cc(F)c(=O)[nH]c2=O)[C@H](O)[C@@H]1O` came in with a melting point of 64 to 67 °C.

`CN1CCOc2cc(S(=O)(=O)n3c(COC(C)(C)C(=O)O)cc4cc(C(F)(F)F)ccc43)ccc21` returned a melting point of 148 to 150 °C.

`FC(Br)C=Cc1ncn(C(c2ccccc2)(c2ccccc2)c2ccccc2)n1` (stereo not drawn) returned a melting point of 145 to 146 °C.

`CC1(C)CCC(C)(C)c2cc(C(=O)C(=O)Nc3ccc(C(=O)O)cc3)ccc21` had a melting point of 216 to 217 °C.

With `COc1cc(NC(C)=O)c(Cl)cc1C(=O)[NH+]([O-])C1CCN(CC2CCCCC2)CC1` (stereo not drawn), the melting point lay in the range of 206 to 208 °C.

`CN1CCCc2c1cc[nH]c2=O`: the melting point came out at 260 °C.

Compound `Cc1cccc2[nH]c(=S)nc(N)c12` returned a melting point above 250 °C.

In turn, `CC(O)c1nc(NCCCOc2cccc(CN3CCCCC3)c2)n(C)n1` (stereo not drawn) registered a melting point of 67 to 68 °C.

The compound `COc1cc(CCNC(=S)Nc2nccs2)ccc1OC(C)C` returned a melting point of 140 to 141 °C.

As to `O=C(CN1CCOCC1)Oc1ccc2c(=O)c3c(oc2c1)C(=Cc1ccccc1)CC3`, the melting point fell in the range of 204 to 206 °C.

In turn, `O=C1CCC(=O)N(c2ccc(N3CCN(C4(c5ccc(-c6ccccc6)cc5)C(=O)NC(=O)NC4=O)CC3)cc2)C1` displayed a melting point of 300 to 301 °C.

In turn, `COc1cccc(-n2c3c(c(=O)c4cccnc42)CC(CBr)O3)c1` (stereo not drawn) had a melting point of 196 to 198 °C.

`Nc1nc2ccccc2c2c1ncn2CC1(O)CCCC1` had a melting point of 254 to 255 °C.

Compound `O=C(Nc1cccc2cnccc12)NC1CC2(CCC2)Oc2c(O)cccc21` (stereo not drawn) yielded a melting point of 246 to 247 °C.

Consider `CCCC(NS(C)(=O)=O)P(=O)(OCCCl)OCCCl` (stereo not drawn), for which the melting point lay within 69 to 72 °C.

`CC(=O)c1c(C)[nH]c(C(C)CC(C)C)c1C` (stereo not drawn) had a melting point of 140 to 142 °C.

As for `CCC(=O)N(C)c1cccc(C(=O)C=CN(C)C)c1`, the melting point lay within 148 to 149 °C.

Compound `Cc1ccn(-c2ccc(S(C)(=O)=O)cc2)c1-c1ccc(OC(F)F)cc1` yielded a melting point of 98 to 99 °C.

Turning to `CC(C)c1cccc(C(C)C)c1NS(=O)(=O)NC(=O)N(Cc1ccccc1)Cc1ccccc1`, the melting point lay in the range of 140 to 142 °C.

As for `COC(=O)Cn1c(=O)c(=O)[nH]c2cc([N+](=O)[O-])c(Cl)cc21`, the melting point was above 260 °C.

Consider `Clc1ccc(-c2nc3c(c(NC4CCCC4)n2)CCC3)cc1`, for which the melting point stood at 167 °C.

`CCc1c(F)nc(-c2ccccc2)nc1F`: the melting point fell in the range of 49 to 51 °C.

Regarding `O=C1C=C(Oc2ccc(-c3ccccc3)cc2)C(O)O1` (stereo not drawn), the melting point is 192 to 193 °C.

As for `O=C1COc2cc(Br)c(F)cc2N1`, the melting point stood at 244 °C.

The compound `Cc1noc(C)c1Cn1cc(N2C(=O)c3ccccc3C2=O)cn1` yielded a melting point of 170 to 171 °C.

Compound `Nc1ncccc1-c1nc2ccc(-c3ccc(CO)cc3)nc2n1-c1ccc(CNC(=O)c2ccccc2)cc1` showed a melting point of 118 to 120 °C.

On to `COc1cc(OC)cc(C(=O)NNC(=O)Nc2cccc3c2C(=O)c2c-3n[nH]c2-c2ccc(N3CCNCC3)cc2)c1`, for which the melting point was above 300 °C.

`Nc1cccnc1Nc1ccccc1C(=O)c1ccccc1` showed a melting point of 91 to 93 °C.

`CCc1c(CCNC(=O)C(F)(F)F)ccc(OC)c1OC` displayed a melting point of 80 to 81 °C.

Compound `O=C(CCc1ccc(O)c(Cl)c1)C1CCCC1` yielded a melting point of 88 to 90 °C.

For `CCOc1nn(C(=O)N(CCCF)S(=O)(=O)N=c2[nH]ccs2)c(=O)n1C`, the melting point was 178 °C.

In turn, `CCOC(=O)Cc1ccc(NC(=O)C(COS(C)(=O)=O)NS(=O)(=O)c2ccc(Br)cc2)cc1` (racemic) returned a melting point of 155 to 156 °C.

The compound `CCOC(=O)C(=CNc1ccc([N+](=O)[O-])cc1O)C(=O)c1cc(F)c(F)c(F)c1F` yielded a melting point of 225 °C.

Compound `CCCOc1ccccc1-c1nc2nc(NCCC(=O)OCC)ncc2c(=O)[nH]1` showed a melting point of 142 to 143 °C.

The compound `CN(C)C(=O)NC(=O)C(C)(C)Br` came in with a melting point of 98 to 100 °C.

As to `O=C(Nc1cc(Cl)cc(Cl)c1)C1=C(O)N2CCCN=C2S1`, the melting point turned out to be 270 °C.

Consider `Cc1ccc(N2CSC(=NCc3ccc(C(F)(F)C(F)(F)F)cc3)N(CC(F)(F)F)C2=O)cc1`, for which the melting point was in the range of 103 to 104 °C.

`CCCCc1ccc(-c2nc3c(s2)C(=O)C(NCCN(C)C)=CC3=O)cc1` gave a melting point of 126 to 127 °C.

Compound `Cc1nc2c(O)c(CCC(=O)c3ccccc3)c(C(=O)N(C)C)cc2n1COCC[Si](C)(C)C` displayed a melting point of 192 to 194 °C.

Compound `c1ccc(C(N=C2CCCC2)c2ccccc2)cc1` had a melting point of 96 to 100 °C.

Regarding `O=C(O)C1(S(=O)(=O)c2ccc(OCC#CCN3CCOCC3)cc2)CCN(Cc2ccc(Br)cc2)CC1`, the melting point is 198 °C.

Take `O=C1C2=NCCCN2c2cccc(Cl)c21`: the melting point stood at 170 °C.

`CCOCCOc1ccc(OCc2ccccc2)cc1` yielded a melting point of 35 to 37 °C.

Compound `CCN(CC)CCOc1ccc(Nc2ncc3c(n2)NC(=O)N(c2c(Cl)cccc2Cl)C3)cc1` yielded a melting point of 248 °C.

Compound `Nc1cc(N)c(SCCO)cc1SCCO` gave a melting point of 144 °C.

Regarding `O=C(N[C@@H]1CCN(CCNc2ncccn2)C[C@H]1O)c1cccc(C(F)(F)F)c1` (relative stereo), the melting point was 148 °C.

In the case of `CC(C)(C)OC(=O)NCc1ccccc1-c1ccccc1C(=O)O`, the melting point amounted to 136 °C.

For the compound `C=C(C)C(=O)Nc1ccc(NC(=O)C(=C)C)cc1`, the melting point fell in the range of 254 to 257 °C.

In turn, `CC(C)(C)OC(=O)C1CCCN1C(=O)c1ccc2c(Cl)cnc(Cl)c2c1` (racemic) had a melting point of 144 to 146 °C.

In turn, `CC(=O)CC(=O)N=C1SCCN1C` returned a melting point of 43 to 45 °C.

With `COc1ccc2[nH]c3cc(N)c4c(c3c2c1)C(=O)NC4=O`, the melting point fell in the range of 342 to 345 °C.

`CN(C)c1ccc2c(c1)C(=O)CC(c1ccccc1OCc1ccccc1)=N2` registered a melting point of 210 to 212 °C.

`O=C(O)c1ccc(-c2ccc(-c3cc(-c4ccc(-c5ccc(C(=O)O)cc5)cc4)cc(-c4ccc(-c5ccc(C(=O)O)cc5)cc4)c3)cc2)cc1` yielded a melting point of 326 °C.

In turn, `C=C(C)C(=O)OCCOCCOC(=O)c1ccc(O)c(Cl)c1` gave a melting point of 57 to 58.5 °C.

The compound `O=c1[nH]nc2c3c(cccc13)Oc1ccc(COP(=O)(O)O)cc1-2` registered a melting point of 246 to 252 °C.

In turn, `C=CCSc1nc(=O)n(-c2ccsc2)cc1F` displayed a melting point of 125 to 127 °C.

For `CC(C)c1ccc(OC(Cc2ccc(OCCNC(=O)c3ccc(-c4ccccc4)cc3)cc2)C(=O)O)cc1` (stereo not drawn), the melting point is 172 to 173 °C.

Compound `CCOC(=O)c1ccc(C(=O)/C=C/c2ccc(SC)cc2)cc1` registered a melting point of 115 to 116 °C.

`CON=C(C)Cc1sc2ccc(Cl)cc2c1Cl` came in with a melting point of 65 to 68 °C.

On to `COc1cc(COc2nc(-c3ccccc3)ncc2C(=O)O)ccc1OCc1nc(-c2ccco2)oc1C`, for which the melting point was 163 to 164 °C.

The compound `O=C(Nc1cc2nc(-c3ccc(C(=O)C4CCCCC4)cc3)[nH]c2cn1)c1ccccn1` gave a melting point of 258 °C.

`C[Si](C)(C)c1cc(O)c([Si](C)(C)C)cc1O` registered a melting point of 162 °C.

`COc1ccc2ccccc2c1-c1c(C)c2c(c(C)c1P(c1ccccc1)c1ccccc1)CCC2` returned a melting point of 166 °C.

In the case of `CN(C)C1(c2ccccc2)CCC(O)(c2cc3ccccc3n2S(=O)(=O)c2ccccc2)CC1` (stereo not drawn), the melting point was 173 to 176 °C.

The compound `CC1CCN(CC#CCN2C(=O)c3cccc4c3N(CC4)c3ccc(Br)cc32)CC1` yielded a melting point of 154 to 155 °C.

Compound `CCCCCCCCCC(=O)Oc1ccc(N)cc1OC(=O)CCCCCCCCC` yielded a melting point of 44 to 46 °C.

As for `CCn1ncc2c3noc(-c4ccc(Cl)cc4)c3cnc21`, the melting point was in the range of 248 to 250 °C.

Take `Cc1cc2c(nc1OCCCCN1CCN(c3cccc(Cl)c3Cl)CC1)NC(=O)CC2`: the melting point was 138 to 139 °C.

On to `CC(C)Oc1ccccc1-c1ncc(C#N)c(=O)[nH]1`, for which the melting point is 182 to 184 °C.

`COC(=O)c1cc(C(C)=O)cnc1C1=NC(C)(C(C)C)C(=O)N1` (stereo not drawn) showed a melting point of 105 to 108 °C.

In the case of `FC(F)(F)c1[nH]c(-c2ccc(Cl)cc2)c(Br)c1C(F)(F)F`, the melting point is 64.5 to 65 °C.

`COC(=O)[C@@H]1COC(=S)N1C(C)=O` returned a melting point of 68 to 68.4 °C.

In turn, `CCCCc1nc(SC)c(C(=O)OCC)n1Cc1cccc(-c2ccc(S(=O)(=O)NC#N)cc2)c1` yielded a melting point of 120 °C.

In the case of `O=C1Oc2ccccc2NC1Cl` (stereo not drawn), the melting point is 133 to 136 °C.

In turn, `COc1cccc(CCc2c(CCNC(=O)CCCCC(=O)NCCc3ccccc3)ccc(OC)c2OC)c1` had a melting point of 150 to 151 °C.

Regarding `Clc1ccc(-c2ncc(C#Cc3ccccc3)s2)cc1`, the melting point lay within 108 to 110 °C.

The compound `CCOC(=O)c1csc(C#Cc2ccc(OC)c(C34CC5CC(CC(C5)C3)C4)c2)c1` returned a melting point of 88 to 90 °C.

Take `Cc1coc(N(CCCC(=O)O)C(=O)C(C)C)n1`: the melting point was in the range of 81 to 82 °C.

The compound `CCCCCCOC1CC(C)(C)N(c2nc(Cl)nc(Cl)n2)C(C)(C)C1` yielded a melting point of 49 to 51 °C.

`CCCNC(=O)Nc1c(C)c(C)c2c(c1C)C(c1ccc(C(C)C)cc1)CO2` (stereo not drawn) had a melting point of 177 to 178 °C.

Take `CCOC(=O)C(=O)Nc1cc(N2CCOCC2)ccc1OC`: the melting point lay within 95 to 97 °C.

Regarding `CC(C)n1nc(-c2cccc(Cl)c2)c2ncccc2c1=O`, the melting point lay within 80 to 81 °C.

`NC(=O)C1CN(CC(=O)Nc2c(Cl)cccc2Cl)CCN1` (stereo not drawn) came in with a melting point of 180 to 183 °C.

In turn, `COc1ccc2c(c1)CCC1=C2CCCN1C(C)=O` displayed a melting point of 119 to 120 °C.

In turn, `CC(Cl)C(=O)NCCO` (stereo not drawn) returned a melting point of 64 °C.
